Test system: 922993-354-T-J3-PDC complex spheroid viability
Experiment: Anticancer human tumor 922993-354-T-J3-PDC patient-derived endometrial carcinoma cell line growth inhibition [POLQ]
Details: for IC50: curve of first compound; for viability, T/C: stronger effect = lower value
Experimental: Multicellular complex tumor spheroid response to Polymerase (POL) inhibitors (novobiocin, ART-558, RP6685) in combination with a variety of drugs and investigational agents in selected tumor cell lines
The POL inhibitors (novobiocin, ART-558, and RP6685) were evaluated both individually and in combination with standard of care and investigational anticancer small molecules within a complex spheroid model of solid tumors. . Complex spheroids include a stromal component modeled by human endothelial cells (HUVEC) and fibroblasts modeled by human mesenchymal stem cells (MSCs). The concentration ranges selected for each drug and investigational agent were based upon clinically achievable concentrations if the clinical Cmax of the agent was known.
Compounds. The drugs and investigational agents: novobiocin (NSC847541), ART-558 (NSC835418), RP-6685 (NSC848927), peposertib (NSC802822), ceralasertib (NSC780249), elimusertib (NSC800525), camonsertib (NSC841442), AZD-1390 (NSC803789), olaparib (NSC753686), talazoparib (NSC767125), rucaparib (NSC756644), sotorasib (NSC818433), MRTX-1133 (NSC836407), SN-38 (NSC673596), topotecan (NSC609699), epotoside (NSC141540), doxorubicin (NSC123127), gemcitabine (NSC613327), 5-fluorouracil (NSC19893), paclitaxel (NSC125973), vemurafenib (NSC761431), MSA-2 (NSC828583), SN-011 (NSC837082), adavosertib (NSC754352), prexasertib (NSC758257), carboplatin (NSC241240) and oxaliplatin (NSC266046), were obtained from the National Cancer Institute (NCI) Developmental Therapeutics Program Chemical Repository (21). The FDA-approved anticancer drug set is available from the Developmental Therapeutics Program at https://dtp.cancer.gov/organization/dscb/obtaining/. […] The stock solutions were prepared in dimethyl sulfoxide (DMSO, Sigma-Aldrich, St. Louis, MO, cat. D2650), except for the platinum compounds which were prepared in saline (Quality Biological, Gaithersburg, MD, cat. 114-055-101), at 800-fold the tested concentration and stored at -70 degrees C prior to their use. All drugs and investigational agents were tested over a range starting from a high concentration at or near the clinical Cmax and decreasing in half-log increments. If the clinical Cmax for an agent had not been determined, the highest concentration tested was 10 microM, except for SN-38, which was tested at a high concentration of 1 microM.
Cell Culture. All cells were maintained in an incubator at 37 degrees C and 5% CO2 with 95% humidity. The PDC lines were cultured according to standard operating procedures established by the NCI PDMR (https://pdmr.cancer.gov). Table 3 of the manuscript, lists the cell lines along with the number of the three cell types plated to form the mct-spheroids and media for tumor cell growth. After thawing, all PDC lines, except 997537-175-T-J1-PDC and 415267-285-R-J2-PDC, were cultured in Matrigel-coated flasks prepared with a working solution of 1X Ham's F-12 nutrient mix, without supplementation (Thermo Fisher Scientific, cat. 11765054), 100 U/mL penicillin-streptomycin (Thermo Fisher Scientific, cat. 15140122), and 2.5% Matrigel (Corning Inc., Corning, NY, cat. 354248) for the first three passages. The two PDC lines 997537-175-T-J1-PDC and 415267-285-R-J2-PDC were cultured on uncoated flasks. The 857933-349-R-J2-PDC line was cultured in 6C/Colon 1B media containing advanced DMEM/F-12 (Thermo Fisher Scientific, cat. 12634028), 10 mM HEPES (Thermo Fisher Scientific, cat. 15630080), 1X GlutaMAX supplement (Thermo Fisher Scientific, cat. 35050061), 0.1 mg/mL primocin (InvivoGen, San Diego, CA, cat. ant-pm-2), 10% defined fetal bovine serum, heat inactivated (HyClone Laboratories Inc., Logan, UT, cat. SH30070.03HI), 50% L-WRN conditioned media (ATCC, cat. CRL-3276), 1.25 mM N-Acetyl-L-cysteine (Sigma-Aldrich, cat. A9165), 10 mM nicotinamide (Sigma-Aldrich, cat. N0636), 1X B-27 supplement (Thermo Fisher Scientific, cat. 17504044), 1X N-2 supplement (Thermo Fisher Scientific, cat. […]
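Also: spheroids exposed to the agents for one week.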
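For viability, T/C in this document: 100% = DMSO vehicle control wells.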

CC(=O)O[C@H]1C(=O)[C@@]2(C)[C@H]([C@H](OC(=O)c3ccccc3)[C@]3(O)C[C@H](OC(=O)[C@H](O)[C@@H](NC(=O)c4ccccc4)c4ccccc4)C(C)=C1C3(C)C)[C@]1(OC(C)=O)CO[C@@H]1C[C@@H]2O + COC1C(OC(N)=O)C(O)C(Oc2ccc3c(O)c(NC(=O)c4ccc(O)c(CC=C(C)C)c4)c(=O)oc3c2C)OC1(C)C
IC50 (second compound 0.0316 µM): 2640 nM
IC50 (second compound 0.1 µM): > 3000 nM
IC50 (second compound 0.316 µM): 2990 nM
IC50 (second compound 1 µM): > 3000 nM
IC50 (second compound 3.16 µM): > 3000 nM
IC50 (second compound 10 µM): 2000 nM
viability, T/C (second compound 0.0316 µM, first compound 0.00949 µM): 97%
viability, T/C (second compound 0.0316 µM, first compound 0.03 µM): 96.3%
viability, T/C (second compound 0.0316 µM, first compound 0.0949 µM): 95.1%
viability, T/C (second compound 0.0316 µM, first compound 0.3 µM): 105%
viability, T/C (second compound 0.0316 µM, first compound 0.949 µM): 85.5%
viability, T/C (second compound 0.0316 µM, first compound 3 µM): 45.6%
viability, T/C (second compound 0.1 µM, first compound 0.00949 µM): 102%
viability, T/C (second compound 0.1 µM, first compound 0.03 µM): 101%
viability, T/C (second compound 0.1 µM, first compound 0.0949 µM): 107%
viability, T/C (second compound 0.1 µM, first compound 0.3 µM): 106%
viability, T/C (second compound 0.1 µM, first compound 0.949 µM): 83.6%
viability, T/C (second compound 0.1 µM, first compound 3 µM): 55.8%
viability, T/C (second compound 0.316 µM, first compound 0.00949 µM): 97.1%
viability, T/C (second compound 0.316 µM, first compound 0.03 µM): 118%
viability, T/C (second compound 0.316 µM, first compound 0.0949 µM): 104%
viability, T/C (second compound 0.316 µM, first compound 0.3 µM): 97.7%
viability, T/C (second compound 0.316 µM, first compound 0.949 µM): 80.5%
viability, T/C (second compound 0.316 µM, first compound 3 µM): 49.8%
viability, T/C (second compound 1 µM, first compound 0.00949 µM): 96.9%
viability, T/C (second compound 1 µM, first compound 0.03 µM): 99.4%
viability, T/C (second compound 1 µM, first compound 0.0949 µM): 104%
viability, T/C (second compound 1 µM, first compound 0.3 µM): 104%
viability, T/C (second compound 1 µM, first compound 0.949 µM): 79.9%
viability, T/C (second compound 1 µM, first compound 3 µM): 53.2%
viability, T/C (second compound 3.16 µM, first compound 0.00949 µM): 99.2%
viability, T/C (second compound 3.16 µM, first compound 0.03 µM): 92.8%
viability, T/C (second compound 3.16 µM, first compound 0.0949 µM): 101%
viability, T/C (second compound 3.16 µM, first compound 0.3 µM): 99.3%
viability, T/C (second compound 3.16 µM, first compound 0.949 µM): 76.9%
viability, T/C (second compound 3.16 µM, first compound 3 µM): 54.9%
viability, T/C (second compound 10 µM, first compound 0.00949 µM): 84.7%
viability, T/C (second compound 10 µM, first compound 0.03 µM): 82.2%
viability, T/C (second compound 10 µM, first compound 0.0949 µM): 94.9%
viability, T/C (second compound 10 µM, first compound 0.3 µM): 68.9%
viability, T/C (second compound 10 µM, first compound 0.949 µM): 64%
viability, T/C (second compound 10 µM, first compound 3 µM): 43.3%

COc1cccc2c1C(=O)c1c(O)c3c(c(O)c1C2=O)CC(O)(C(=O)CO)CC3OC1CC(N)C(O)C(C)O1 (centres undefined) + COC1C(OC(N)=O)C(O)C(Oc2ccc3c(O)c(NC(=O)c4ccc(O)c(CC=C(C)C)c4)c(=O)oc3c2C)OC1(C)C
IC50 (second compound 0.0316 µM): 1350 nM
IC50 (second compound 0.1 µM): 997 nM
IC50 (second compound 0.316 µM): 1080 nM
IC50 (second compound 1 µM): 899 nM
IC50 (second compound 3.16 µM): 893 nM
IC50 (second compound 10 µM): 723 nM
viability, T/C (second compound 0.0316 µM, first compound 0.0316 µM): 104%
viability, T/C (second compound 0.0316 µM, first compound 0.1 µM): 88.8%
viability, T/C (second compound 0.0316 µM, first compound 0.316 µM): 80.7%
viability, T/C (second compound 0.0316 µM, first compound 1 µM): 53.3%
viability, T/C (second compound 0.0316 µM, first compound 3.16 µM): 33.9%
viability, T/C (second compound 0.0316 µM, first compound 10 µM): 10.1%
viability, T/C (second compound 0.1 µM, first compound 0.0316 µM): 97.2%
viability, T/C (second compound 0.1 µM, first compound 0.1 µM): 101%
viability, T/C (second compound 0.1 µM, first compound 0.316 µM): 88.6%
viability, T/C (second compound 0.1 µM, first compound 1 µM): 48%
viability, T/C (second compound 0.1 µM, first compound 3.16 µM): 21.8%
viability, T/C (second compound 0.1 µM, first compound 10 µM): 8.62%
viability, T/C (second compound 0.316 µM, first compound 0.0316 µM): 105%
viability, T/C (second compound 0.316 µM, first compound 0.1 µM): 91.9%
viability, T/C (second compound 0.316 µM, first compound 0.316 µM): 77.3%
viability, T/C (second compound 0.316 µM, first compound 1 µM): 50.7%
viability, T/C (second compound 0.316 µM, first compound 3.16 µM): 28.7%
viability, T/C (second compound 0.316 µM, first compound 10 µM): 12.9%
viability, T/C (second compound 1 µM, first compound 0.0316 µM): 102%
viability, T/C (second compound 1 µM, first compound 0.1 µM): 96.1%
viability, T/C (second compound 1 µM, first compound 0.316 µM): 68.7%
viability, T/C (second compound 1 µM, first compound 1 µM): 45.8%
viability, T/C (second compound 1 µM, first compound 3.16 µM): 30.9%
viability, T/C (second compound 1 µM, first compound 10 µM): 10.7%
viability, T/C (second compound 3.16 µM, first compound 0.0316 µM): 94.5%
viability, T/C (second compound 3.16 µM, first compound 0.1 µM): 100%
viability, T/C (second compound 3.16 µM, first compound 0.316 µM): 87.1%
viability, T/C (second compound 3.16 µM, first compound 1 µM): 44.7%
viability, T/C (second compound 3.16 µM, first compound 3.16 µM): 21.6%
viability, T/C (second compound 3.16 µM, first compound 10 µM): 10.8%
viability, T/C (second compound 10 µM, first compound 0.0316 µM): 86.4%
viability, T/C (second compound 10 µM, first compound 0.1 µM): 90.8%
viability, T/C (second compound 10 µM, first compound 0.316 µM): 68.7%
viability, T/C (second compound 10 µM, first compound 1 µM): 41.1%
viability, T/C (second compound 10 µM, first compound 3.16 µM): 22.8%
viability, T/C (second compound 10 µM, first compound 10 µM): 10.4%

— PubChem BioAssay AID1963830 (Molecular Pharmacology Branch, DTP, NCI, 2024)
